Columns and labels:
[1] = molecular target: T1, Fuc-TIV (Homo sapiens, UniProt P22083); experiment: Fucosyltransferase assay, extracts of CHO-FT3 cells (CHO transfected with pCDNA1-Fuc-TIV); assay type: biochemical; design: expressed in transfected cells; details: standard assay, CHO-FT3 cell extracts
T1 sequence (P22083 1-405 isoform P22083-2): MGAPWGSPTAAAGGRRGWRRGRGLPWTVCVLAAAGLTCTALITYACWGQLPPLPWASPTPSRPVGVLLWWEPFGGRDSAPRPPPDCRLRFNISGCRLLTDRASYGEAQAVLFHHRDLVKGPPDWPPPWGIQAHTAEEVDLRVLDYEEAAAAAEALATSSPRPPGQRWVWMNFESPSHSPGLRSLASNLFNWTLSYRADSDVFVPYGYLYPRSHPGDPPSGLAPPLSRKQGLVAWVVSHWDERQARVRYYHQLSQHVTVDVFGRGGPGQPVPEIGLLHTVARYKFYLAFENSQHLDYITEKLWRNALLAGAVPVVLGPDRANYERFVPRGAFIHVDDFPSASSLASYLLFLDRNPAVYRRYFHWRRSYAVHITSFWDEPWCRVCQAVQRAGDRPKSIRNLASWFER
Experimental: CHO Ade-C cells were transfected with Scal-linearized pCDM7-Fuc-TIV, co-precipitated in a 10-fold molar excess over EcoRI-linearized pSV2-Neo. A single, clonal, SSEA-1-positive cell line (CHO-FT3) was derived from this population. Cell extracts prepared from CHO-FT3 contained substantial amounts of α(1,3)fucosyltransferase activity when assayed with the acceptor N-acetyllactosamine.
Cell extracts containing 1% Triton X-100 were prepared from transfected COS-1 cells. Fucosyltransferase assays were performed in a total volume of 20 μl, and contained 50 mM sodium cacodylate, pH 6.2, 5 mM ATP, 10 mM fucose, 20 mM MnCl2, 3 μM GDP-^14C-fucose, and 5 μl (30 μg protein) of cell extract. Acceptor substrates were added to a final concentration of 20 mM. Reactions were incubated at 37° C. for 1 hour and terminated by addition of 20 μl ethanol, followed by addition of 600 μl of distilled water. An aliquot of each reaction (50 μl) was subjected to scintillation counting to determine total radioactivity in the reaction. Another aliquot (200 μl) was applied to a column containing 400 μl of Dowex IX2-400, formate form. The flow through fraction, and […] of a subsequent water elution, were collected and pooled, and an aliquot was subjected to scintillation counting to quantitate incorporation of radioactive fucose into neutral product. Descending paper chromatography was used to confirm the structure of the product formed with the acceptor N-acetyllactosamine. The neutral product in the Dowex column eluate was concentrated by lyophilization, resuspended in a small volume of water, and fractionated through Whatman No. 40 in phenol/isopropanol/formic acid/water (85:5:10:100, lower layer). After chromatography (40 hours), the air-dried chromatogram was cut into 1 cm strips and the strips eluted into 2 ml of water. Radioactivity in each eluate was determined by scintillation counting after mixing with 10 ml of scintillation cocktail.

[2] = tested on: monoclonal anti-H antibody (BE2); experiment: Hapten inhibition of BE2 anti-H antibody binding to mH1-12 cells; design: species or system mouse; details: antibody preincubated with hapten, 20 mM
Experimental: (§1) Immunofluoroscence was performed on cells plated on 8-well tissue culture chamber slides (Lab-Tek). Cells were plated at a density of 5×10^4/well 24 h prior to analysis. Anti-H and anti-A primary antibodies were diluted in PBS containing bovine serum albumin at 2 mg/ml, to a final concentration of 10 μg/ml. Cell-bound primary antibodies were detected with FITC-conjugated goat anti-mouse IgM, diluted to 40 μg/ml in PBS containing 2 mg/ml bovine serum albumin.
(§2) Hapten Inhibition—Plated cells were washed twice with PBS, and were incubated for 30 min at 4° C. with 100 μl of diluted anti-H antibody, or with 100 μl of diluted antibody containing different oligosaccharide haptens, each at a concentration of 20 mM. The chambers were then washed twice, and 100 μl of FITC-conjugated goat anti-mouse IgM was added. After 30 min at 4° C., the chambers were washed three times with PBS, and the cells were fixed at room temperature for 10 min in 3.7% formaldehyde in PBS. The cells were washed twice with PBS, the chambers were removed, and the slide was mounted in PBS containing 25% glycerol. Cells were examined by fluorescence microscopy using a Zeiss Axiophot photomicroscope equipped with fluorescence epiillumination.

[3] = tested on: monoclonal anti-H antibody; experiment: Hapten inhibition of anti-H antibody binding to mH1-12 cells (indirect immunofluorescence); design: species or system mouse; details: antibody preincubated with hapten, 20 mM
Experimental: as §1, §2

[4] = molecular target: T2, agglutinin from Erythrina cristagalli (ECA) (Erythrina crista-galli, UniProt P83410); experiment: Hapten inhibition of FITC-ECA binding to L cells (FACS); details: FITC-labeled ECA preincubated with hapten
T2 construct: purchased E-Y Labs (San Mateo, Calif.)
T2 sequence (P83410 1-239): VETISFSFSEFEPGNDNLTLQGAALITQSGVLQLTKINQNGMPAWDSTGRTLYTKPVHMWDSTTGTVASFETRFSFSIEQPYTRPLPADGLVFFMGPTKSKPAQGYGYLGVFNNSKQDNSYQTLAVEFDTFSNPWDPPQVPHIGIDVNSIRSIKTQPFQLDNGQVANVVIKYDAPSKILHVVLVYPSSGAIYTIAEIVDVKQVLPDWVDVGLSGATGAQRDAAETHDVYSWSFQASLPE
Experimental: These would represent potential acceptor molecules for a complementing human (α-1,2)fucosyltransferase activity and would allow the resulting surface-expressed Fucα(1,2)Gal linkages to be detected with anti-H antibody. The agglutinin from Erythrina cristagalli (ECA) was used for this analysis. […] L cells were stained with purified, FITC-labeled ECA, or with FITC-labeled ECA that had been preincubated with the hapten N-acetyllactosamine and were subjected to FACS analysis.

Compound | α(1,3)fucosyltransferase activity with acceptor substrate [1] [pmol/mg/h] | inhibition of BE2 anti-H antibody binding to mH1-12 cells by hapten [2] | inhibition of anti-H antibody binding to mH1-12 cells by hapten [3] | inhibition of ECA binding to L cells by hapten [4]
Fucα(1,2)Galβ(1,4)Glc [2-fucosyllactose] | 5.8 | inhibition of binding | blocked | 
OC[C@H]1O[C@@H](O[C@H]2[C@H](O)[C@@H](O)C(O)O[C@@H]2CO)[C@H](O)[C@@H](O)[C@H]1O (some centres unmarked) [lactose] | 2.0 |  | does not inhibit | 
CC(=O)N[C@H]1C(O)O[C@H](CO)[C@@H](O[C@@H]2O[C@H](CO)[C@H](O)[C@H](O)[C@H]2O)[C@@H]1O (some centres unmarked) [N-acetyllactosamine] | 59.1 |  | does not inhibit | effectively inhibited

Source: patent US20020102688A1, “Methods and products for the synthesis of oligosaccharide structures on glycoproteins, glycolipids, or as free molecules, and for the isolation of cloned genetic sequences that determine these structures” (The Regents of the University of Michigan, priority 1990, published 2002)
